The results in this text go back to patent publication US20190062277A1, “FARNESOID X RECEPTOR AGONISTS AND USES THEREOF” (Metacrine, Inc., priority 2015, published 2019).

Experiment [1] deals with T1, FXR (Homo sapiens, UniProt Q96RI1).
T1 sequence (Q96RI1 1-486): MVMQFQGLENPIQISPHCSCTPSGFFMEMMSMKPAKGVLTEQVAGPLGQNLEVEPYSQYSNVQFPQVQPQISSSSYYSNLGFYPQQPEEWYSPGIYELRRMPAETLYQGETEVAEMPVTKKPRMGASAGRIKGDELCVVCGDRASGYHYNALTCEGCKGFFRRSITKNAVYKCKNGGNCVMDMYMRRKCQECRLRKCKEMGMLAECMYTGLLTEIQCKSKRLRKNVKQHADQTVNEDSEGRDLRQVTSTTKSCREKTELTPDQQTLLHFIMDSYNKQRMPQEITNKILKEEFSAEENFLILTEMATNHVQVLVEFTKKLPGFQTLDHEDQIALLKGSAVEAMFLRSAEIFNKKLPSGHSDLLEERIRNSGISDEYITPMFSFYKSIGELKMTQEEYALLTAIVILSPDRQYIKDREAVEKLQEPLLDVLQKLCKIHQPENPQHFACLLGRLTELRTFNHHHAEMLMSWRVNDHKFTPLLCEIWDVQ
T1 sequence (P19793 1-462 partner): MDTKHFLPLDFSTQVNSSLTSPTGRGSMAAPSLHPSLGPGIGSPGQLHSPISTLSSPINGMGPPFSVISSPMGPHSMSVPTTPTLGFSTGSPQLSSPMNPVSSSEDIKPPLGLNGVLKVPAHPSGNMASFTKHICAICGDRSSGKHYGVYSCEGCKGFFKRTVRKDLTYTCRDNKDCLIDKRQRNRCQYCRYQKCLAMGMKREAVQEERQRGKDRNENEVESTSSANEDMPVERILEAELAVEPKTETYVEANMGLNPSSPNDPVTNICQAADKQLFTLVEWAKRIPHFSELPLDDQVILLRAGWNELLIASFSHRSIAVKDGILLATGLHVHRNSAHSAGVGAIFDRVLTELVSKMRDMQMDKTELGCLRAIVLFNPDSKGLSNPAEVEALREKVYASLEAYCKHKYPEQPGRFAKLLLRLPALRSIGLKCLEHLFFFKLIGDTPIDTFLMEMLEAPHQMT
Description: In Vitro FXR Assay (PGL3), luciferase reporter in transfected CV-1 cells. The format is cell-based. On the set-up: plasmids XPD90Gal pCMXhFXRfl, pCMXhRXRfl+PGL3-ECRE*6-luc+CMX-YFP; expressed in transfected cells; host or cells: CV-1 cells. Particulars: CV-1 cells transfected with hFXR, hRXR, PGL3-ECRE*6-luc; 18 hrs incubation; luminescence. The procedure: Example B-1: In Vitro FXR Assay (PGL3)
CV-1 cells were seeded at a density of 2,000,000 cells in a T175 flask with DMEM+10% charcoal double-stripped FBS and incubated at 37° C. in a 5% CO2 for 18 h (0/N).
After 18 h of incubation, the medium in the T175 flask was changed with fresh DMEM+10% charcoal super-stripped serum.
To prepare the transfection reaction mixture, the transfection reagent (X-tremeGENE HP from Roche, Cat #06 366 236 001) was added in to a 1.5 mL microcentrifuge tube labelled “A” at a ratio of 1:3 (DNA in μg: transfection reagent in μL). OptiMEM medium (Life Technologies, Cat #31985-062) was added accordingly to provide a total volume of 1 mL. The transfection reaction mixture was then briefly vortexed and incubated at room temperature for 5 minutes.
In a separate 1.5 mL microcentrifuge tube labelled “B”, 100 μL OptiMEM and plasmids XPD90Gal pCMXhFXRfl, pCMXhRXRfl+PGL3-ECRE*6-luc+CMX-YFP in the ratio 2 μg: 2 μg:18 μg:3 μg were added. This microcentrifuge tube “B” was then briefly vortexed and incubated at room temperature for 5 minutes.
The total volume in tube labelled “A” was then transferred in to tube labelled “B.” The mixture was then briefly vortexed and the transfection:DNA complex was then incubated for about 15-20 minutes at room temperature.
Following incubation, the transfection reagent/DNA mixture complex was then added to cells in the T175 flask and the cells were incubated at […] (0/N) at 37° C. in 5% CO2.
In a 96 well plate, a half logarithmic serial dilution was prepared. OptiMEM was used as the diluent. Using any of one of the compounds described herein, a compound stock solution of 10 mM was prepared. An initial 1:100 dilution was made into the first well for a final concentration of 100 μM. The final concentrations in the 96-well plate was prepared by using a multichannel pipette to transfer 5 μL of the diluted compound to 384-well plate in quadruplicate.
Cells in T175 flask were trypsinized and cells were resuspending in 40 mL phenol red free DMEM+10% charcoal super-stripped FBS. Typically, one T175 flask was sufficient to seed two 384 well plates. CV-1 cells were seeded at 45 μL cell suspension/well using a multi-channel pipet or a 384 multidrop dispenser. The cells were then incubated for 18 hrs, overnight.
After removing the plates from the incubator, the medium was flicked out of plate and 384 well plate was turned upside down onto paper towel. The remaining medium was gently tapped out. 15 μL lysis buffer was then added to each well using a multichannel pipet or a 384 well multi-drop dispenser. After incubation for 10 minutes at room temperature on shaker, 30 μL Luciferase buffer was added to each well. Luminescence counts were taken immediately using the Perkin Elmer Envision.
The ability of the compounds disclosed herein to […] FXR activity was quantified and the respective EC50 value was determined. Fex=fexaramine.
(Reporter assays use an easily measured gene product as a stand-in for the process of interest.)

In experiment [2] the target is T1, FXR. Description: In Vitro FXR Assay (TK), luciferase reporter in transfected CV-1 cells. Particulars: CV-1 cells transfected with hFXR, hRXR, TK-ECRE-luc; 18 hrs incubation; luminescence; maximum efficacy <25% of Fexaramine control also classified '+'. The format is cell-based. Also on record: expressed in transfected cells; host or cells: CV-1 cells. As for the experimental part: Example B-2: In Vitro FXR Assay (TK)
CV-1 cells were seeded at a density of 2,000,000 cells in a T175 flask with DMEM+10% charcoal double-stripped FBS and incubated at 37° C. in 5% CO2 for 18 h (0/N).
After 18 h of incubation, the medium in the T175 flask was changed with fresh DMEM+10% charcoal super-stripped serum. In a polypropylene tube, 2500 μL OptiMEM (Life Technologies, Cat #31985-062) was combined with expression plasmids for hFXR, hRXR, TK-ECRE-luc and pCMX-YFP. The tube was then briefly vortexed and incubated at room temperature for 5 minutes. Transfection reagent (X-tremeGENE HP from Roche, Cat #06 366 236 001) was added to the OptiMEM/plasmid mixture vortexed and incubated at room temperature for 20 minutes. Following incubation, the transfection reagent/DNA mixture complex was added to cells in the T175 flask and the cells were incubated at 37° C. in 5% CO2 for 18 h (O/N).
Compounds were serially diluted in DMSO and added to transfected CV-1 cells. The cells were then incubated for 18 hrs. The next day cells were lysed and examined for luminescence.

pEC50: −log10 of the molar value.

`CN(C)c1ccc(N2CCC(CN(C(=O)C3CCCCC3)c3cccc(/C=C/C(=O)O)c3)CC2)cc1` [Compound 6, (E)-3-(3-(N-((1-(4-(Dimethylamino)phenyl)piperidin-4-yl)methyl)cyclohexanecarboxamido)phenyl)acrylic acid]: on FXR [1], the “Cmpd/Fex (ratio of the EC50 for the test compound relative to the EC50 of the Fexaramine control)” value is recorded as “+ (‘+’ means Cmpd/Fex >100)”. Besides, at FXR [2], the negative-log EC50 (pEC50) (as a rule, the EC50 on a negative log10 scale, so that one unit is a factor of ten) is ≤ 5.00.

For the compound `COC(=O)/C=C/c1cccc(N(CC2CCC(c3ccc(Cl)cc3)CC2)C(=O)C2CCCCC2)c1` (stereo not shown) [Compound 7, (E)-Methyl 3-(3-(N-((4-(4-chlorophenyl)cyclohexyl)methyl)cyclohexanecarboxamido)phenyl)acrylate], the “Cmpd/Fex (ratio of the EC50 for the test compound relative to the EC50 of the Fexaramine control)” value on FXR [1] was “+++ (‘+++’ means Cmpd/Fex <10)”. Moreover, the pEC50 on FXR [2] was ≥ 6.00.
